We go through six molecules from patent US11183645B2, “Organic thin film and method for manufacturing organic thin film, organic electroluminescence element, display device, illumination device, organic thin film solar cell, thin film transistor, and coating composition” (NIPPON HOSO KYOKAI, priority 2015, dated 2021).

Each structure is given as a SMILES string. Read-outs that look alike come from different tables or passages of the source.

A short description of this data set: acid dissociation constant pKa of the first material. Particulars: for pKa (H2O): acid dissociation constant in water, first materials of the electron injection layer.

Source text: In the present invention, the “pKa” usually means the “acid dissociation constant in water”. When the pKa cannot be measured in water, it means the “acid dissociation constant in dimethyl sulfoxide (DMSO)”, and when the pKa cannot be measured even in DMSO, it means the “acid dissociation constant in acetonitrile”. The pKa preferably means the “acid dissociation constant in water”.

Take `CN(C)P(=NC(C)(C)C)(N=P(N(C)C)(N(C)C)N(C)C)N(C)C` [Phosphazene base P2-t-Bu]: the “pKa (H2O)” value came to 20.
Broadly, the pKa is the pH at which an ionisable group is half protonated. The low end stands for a stronger acid or weaker base, the high end for a weaker acid or stronger base. Molecule `CN(C)c1ccc2cc3ccc(N(C)C)cc3nc2c1` [AOB, acridine orange] showed a pKa of no less than 1.
Same read-out and setting: the same measure for `C1=Cc2ccccc2C1` [indene]: no less than 1.
`COc1cccnc1` [3-MeOP, 3-methoxypyridine] registered a pKa (water) of 4.88.
Same read-out and setting: the same measure for `CN(C)c1ccncc1` [4-DMAP, 4-dimethylaminopyridine]: 9.7.
For `C1CCC2=NCCCN2CC1` [DBU, 1,8-diazabicyclo[5.4.0]undecene-7], the “pKa (H2O)” value came out at 12.5.
